Assay results as given in patent publication US20240342138A1, “MICROTUBULE TARGETING AGENTS” (BPGbio, Inc., priority 2023, published 2024).
One block for each compound: values may come before it.

Columns and labels:
[1] = Blood brain barrier permeability (PVDF membrane coated with porcine brain polar lipid extract); type: in vitro ADME; conditions: for recovery at 4 h, 10 μM: pig, not told
Procedure: Preparation of Donor Solution a) 0.2 mM working solution was prepared by diluting 10 mM stock solution with DMSO. b) 10 μM donor solution (5% DMSO) was prepared by diluting 20 μL of working solution with 380 μL PBS. 2) 150 μL of 10 μM donor solutions to each well of the donor plate, whose PVDF membrane was precoated with 5 μL of 1% brain polar lipid extract (Porcine)/dodecane mixture. Duplicates were prepared. 3) 300 μL of PBS was added to each well of the PTFE acceptor plate. 4) The donor plate and acceptor plate were combined together and incubated for 4h at room temperature with shaking at 300 rpm. 5) Preparation of TO sample: 20 μL donor solution was transferred to new well followed by the addition of 250 μL PBS (DF: 13.5), 130 μL ACN (containing internal standard) as TO sample. 6) Preparation of acceptor sample: The plate was removed from incubator. 270 μL solution was transferred from each acceptor well and mixed with 130 μL ACN (containing internal standard) as acceptor sample. 7) Preparation of donor sample: […] was transferred from each donor well and mixed with 250 μL PBS (DF: 13.5), 130 μL ACN (containing internal standard) as donor sample. 8) Acceptor samples and donor samples were all analyzed by LC/MS/MS.

HCT116 cells = test: Kinetochore assembly, immunocytochemistry / confocal microscopy; type: cell-based; conditions: 300 nM, 24h
Procedure: The HCT116 cells were cultured using DMEM media supplemented with 10% FBS and 1% Pen/Strep. Cells were maintained to a maximum of 80% confluency before being split and plated into coverslips in 12-well plates.
1. HCT116 cells were plated on Poly-D-Lysine German Glass Coverslips (#1.5, 18 mm)
2. After 24h cells were treated with 300 nM of Compound 1 and Nocodozole.
3. After 24h cells were washed briefly with PBS and fixed with warm 4% paraformaldehyde at room temperature for 10 min.
4. Cells were permeabilized and blocked in 10% goat serum, 0.5% Triton-X in PBS for 1 hr.
5. Cells were incubated with Primary antibodies overnight.
6. Washed 3× with PBS for 10 min
7. Incubated with secondary antibodies at room temperature for 1 hr.
8. Washed 3× with PBS for 10 min
9. Coverslips were mounted with ProLong Gold Anti-Fade Mount with DAPI and imaged with Olympus FV1200 MPE Microscope.
10. Images were collected with identical confocal settings for all of the samples and Z-stacked images were projected with maximal projection mode using Fluor View Software.
1. Selected cells of interest using the drawing/selection tools (i.e. rectangle, circle, polygon or freeform).
2. From the Analyze menu selected “Measure.”
3. Selected region with no fluorescence to be my background.
4. Repeated these steps for other cells in the field of view
5. Used the CTCF formula to calculate Mad1 expression:
CTCF=Integrated Density−(Area of selected cell×Mean fluorescence of background readings)
Micrographs were imaged using Olympus FV1200 MPE confocal microscope at 63× oil. White arrows indicate dividing cells. Representative images of N=3 biological replicates. Significance in difference of treated HCT116 cells to untreated cells was tested by Student t test (** p<0.01).

[2] = tested on: colchicine binding site of tubulin; test: EBI labeling assay in MIA PaCa2 cells (Western blot); type: cell-based; conditions: 2 hours compound, then 2 hours 100 μM EBI, FIG. 2, FIG. 3
Procedure: MIA PaCa2 cells were cultured in DMEM+10% FBS and 1% P/S. Cells were plated at 1.5-2×10^6 in 60 mm dishes. For drug treatments, cells were treated the day after plating with 0.1% DMSO or the compounds tested at the concentrations indicated in FIG. 2 for 2 hours.
• Cells were treated with compounds for 2 hours at 37°, 5% CO2 (in the cell culture incubator), and then for an additional 2 hours with 100 μM EBI (with compounds present) under the same conditions. • Cells were then harvested with Trypsin and pelleted at 500 g for 3 minutes. • Cells were rinsed in 1 mL PBS and transferred to clean epi tubes. […] BCA assay plates were incubated for 15 minutes in the 37-degree incubator in the outer molecular lab. • After protein normalization (including addition of reducing Laemmli buffer from a 6× stock) samples were boiled at 95 degrees for 3 minutes and frozen for subsequent Western Blotting.
Significance in difference of treated MIA PaCa-2 cells to 0.1% DMSO treated cells were tested by Student t test (* p<0.05; ** p<0.01; *** p<0.001).

CTG-1520 PDX tumors = conditions: CTG-1520 in vivo; Champion Oncology Lumen Platform database; cited from earlier work
[3] = tested on: Triple Negative Breast Cancer patient-derived organoids CTG-1520, CTG-0896, CTG-1017; test: Viability of PDO models of taxane resistance (CellTiter-Glo, 5 days); type: cell-based, human; conditions: same patient before (CTG-1017) and after (CTG-1520) taxane-based chemotherapy
Procedure: FIGS. 9A and 9B show potency of Compound 1 in patient-derived organoid (PDO) models of taxane resistance. Patient-derived organoids were treated with Compound 1, paclitaxel or controls (0.1% DMSO, positive control—10% DMSO) for 5 days. Viability was assessed using the CellTiter-Glo® assay. IC50 and maximal (max) inhibition values were extrapolated from the viability curves. A) Model overview and dose response curves to Compound 1 and paclitaxel. B) Summary of CellTiter-Glo results in all three models tested. Compiled data of N=4 replicates.
CTG-1520 and CTG-0896 were derived from Triple Negative Breast Cancer (TNBC) patients post-treatment, and progression on a taxane-based therapy and the models' resistance to paclitaxel was confirmed by testing in vivo PDX (Patient-derived xenograft) tumor growth. […] Compound 1 and paclitaxel were tested head-to-head in each model in a dose-curve setting. 10% DMSO was used as the positive control for induction of 100% cell cytotoxicity.

CTG-1017 = conditions: CRO historical data; cited from earlier work
[4] = tested on: Triple Negative Breast Cancer patient-derived organoids CTG-1520, CTG-0896, CTG-1017; conditions: CTG-1520 ex vivo; Champion Oncology Lumen Platform database; cited from earlier work

recovery at 4 h, 10 μM [1]: < 100%
SMILES: CC(C)NCC(O)COc1ccc(CC(N)=O)cc1 (centres unmarked) [Atenolol, reference compound]

Permeability ([1]; 10 μM, 4 h): High | Papp at 4 h, 10 μM ([1]; PAMPA, read-out: Mean Pe): 4.74 ×10⁻⁶ cm/s | recovery at 4 h, 10 μM [1]: 27.7%
SMILES: CC(C)NCC(O)COc1cccc2ccccc12 (centres unmarked) [Propranolol, reference compound]

SMILES: COC(=O)Nc1nc2cc(C(=O)c3cccs3)ccc2[nH]1 [nocodazole, reference compound]
Mitotic spindle formation (HCT116 cells; FIG. 4A): lack of proper mitotic spindle formation | Mad1 signal intensity (HCT116 cells; FIG. 4B): increase in Mad1 signal intensity | Formation of EBI:β-tubulin adducts [2]: inhibited formation of the EBI:β-tubulin adducts

SMILES: CC(=O)O[C@H]1C(=O)[C@@]2(C)[C@H]([C@H](OC(=O)c3ccccc3)[C@]3(O)C[C@H](OC(=O)[C@H](O)[C@@H](NC(=O)c4ccccc4)c4ccccc4)C(C)=C1C3(C)C)[C@]1(OC(C)=O)CO[C@@H]1C[C@@H]2O [paclitaxel]
TGI (CTG-1520 PDX tumors): 10% | Retention of potency in matched PDO models [3]: did not | Sensitivity of model in vivo (CTG-1017): sensitive | max effect [4]: 29.1%
